Data: US5739273A, “Transmembrane polypeptide and methods of use” (Yale University, priority 1994, dated 1998)
Residues, ends and D or L forms follow the SMILES beside them.

Test: circular dichroism titration in the presence of small unilamellar phospholipid vesicles
Format: physicochemical
Conditions: circular dichroism at 222 nanometers vs pH, DMPC small unilamellar vesicles
Text: FIG. 5A is a graph showing the circular dichroism analysis of the synthetic polypeptide of FIG. 1 in the presence of dimyristoyl phosphatidylcholine (DMPC) vesicles at various pH values. The black squares indicate the initial titration (down). The open circles indicate the reverse titration (up). The open triangles indicate the second titration (down).
The well-known spectroscopic technique of polarized infrared linear dichroism is used to determine the orientation of the alpha-helical domain of the polypeptide. The orientation of the polypeptide in protein/phospholipid multilayers is inferred from the dichroism of two amide vibrations.
FIG. 5A is a graph showing circular dichroism titration of the synthetic polypeptide having the amino acid sequence set forth in FIG. 1 and sequence listing identification number 1, in the presence of a solution containing small unilamellar phospholipid vesicles made from synthetic dimyristoyl phosphatidylcholine. The y axis is millidegrees at 222 nanometers, and the x axis is pH. […] FIG. 5B is a corresponding control graph showing circular dichroism titration of the polypeptide in the […] of lipid molecules.

Q: For `CC[C@H](C)[C@H](NC(=O)[C@@H]1CCCN1C(=O)[C@H](CC(N)=O)NC(=O)[C@H](CCC(N)=O)NC(=O)[C@H](CCC(=O)O)NC(=O)CNC(=O)CN)C(=O)N[C@@H](Cc1ccc(O)cc1)C(=O)N[C@@H](Cc1c[nH]c2ccccc12)C(=O)N[C@@H](C)C(=O)N[C@@H](CCCNC(=N)N)C(=O)N[C@@H](Cc1ccc(O)cc1)C(=O)N[C@@H](C)C(=O)N[C@@H](CC(=O)O)C(=O)N[C@@H](Cc1c[nH]c2ccccc12)C(=O)N[C@@H](CC(C)C)C(=O)N[C@@H](Cc1ccccc1)C(=O)N[C@H](C(=O)N[C@H](C(=O)N1CCC[C@H]1C(=O)N[C@@H](CC(C)C)C(=O)N[C@@H](CC(C)C)C(=O)N[C@@H](CC(C)C)C(=O)N[C@@H](CC(C)C)C(=O)N[C@@H](CC(=O)O)C(=O)N[C@@H](CC(C)C)C(=O)N[C@@H](C)C(=O)N[C@@H](CC(C)C)C(=O)N[C@@H](CC(C)C)C(=O)N[C@H](C(=O)N[C@@H](CC(=O)O)C(=O)N[C@@H](C)C(=O)N[C@@H](CC(=O)O)C(=O)N[C@@H](CCC(=O)O)C(=O)NCC(=O)N[C@H](C(=O)O)[C@@H](C)O)C(C)C)[C@@H](C)O)[C@@H](C)O` [synthetic polypeptide] (H-GGEQNPIYWARYADWLFTTPLLLLDLALLVDADEGT-OH), which “pKa of formation of a polypeptide alpha-helix” value is on record?
A: 6.0
